Patent US20260193264A1, “BENZOYPARAZINE PYRAZINES AND THEIR USES” (FOGHORN THERAPEUTICS INC., priority 2022, published 2026)

Key:
[1] = molecular target: T1, HiBiT-BRM fusion protein in stable HeLa cell line (Homo sapiens, UniProt P51531); assay: HiBiT-BRM cell-based degradation assay (Nano-Glo HiBiT Lytic Detection, 24 h); parameters: DC50: scale not given here; conditions: HeLa HiBiT-BRM cells; for DC50: read-out: BRM HiBit Degradation IC50; for BRM HiBit Degradation Maximum (%): top dose 30 μM
T1 construct: expressed in transfected cells
T1 sequence (P51531 whole entry, the tested form may be a part): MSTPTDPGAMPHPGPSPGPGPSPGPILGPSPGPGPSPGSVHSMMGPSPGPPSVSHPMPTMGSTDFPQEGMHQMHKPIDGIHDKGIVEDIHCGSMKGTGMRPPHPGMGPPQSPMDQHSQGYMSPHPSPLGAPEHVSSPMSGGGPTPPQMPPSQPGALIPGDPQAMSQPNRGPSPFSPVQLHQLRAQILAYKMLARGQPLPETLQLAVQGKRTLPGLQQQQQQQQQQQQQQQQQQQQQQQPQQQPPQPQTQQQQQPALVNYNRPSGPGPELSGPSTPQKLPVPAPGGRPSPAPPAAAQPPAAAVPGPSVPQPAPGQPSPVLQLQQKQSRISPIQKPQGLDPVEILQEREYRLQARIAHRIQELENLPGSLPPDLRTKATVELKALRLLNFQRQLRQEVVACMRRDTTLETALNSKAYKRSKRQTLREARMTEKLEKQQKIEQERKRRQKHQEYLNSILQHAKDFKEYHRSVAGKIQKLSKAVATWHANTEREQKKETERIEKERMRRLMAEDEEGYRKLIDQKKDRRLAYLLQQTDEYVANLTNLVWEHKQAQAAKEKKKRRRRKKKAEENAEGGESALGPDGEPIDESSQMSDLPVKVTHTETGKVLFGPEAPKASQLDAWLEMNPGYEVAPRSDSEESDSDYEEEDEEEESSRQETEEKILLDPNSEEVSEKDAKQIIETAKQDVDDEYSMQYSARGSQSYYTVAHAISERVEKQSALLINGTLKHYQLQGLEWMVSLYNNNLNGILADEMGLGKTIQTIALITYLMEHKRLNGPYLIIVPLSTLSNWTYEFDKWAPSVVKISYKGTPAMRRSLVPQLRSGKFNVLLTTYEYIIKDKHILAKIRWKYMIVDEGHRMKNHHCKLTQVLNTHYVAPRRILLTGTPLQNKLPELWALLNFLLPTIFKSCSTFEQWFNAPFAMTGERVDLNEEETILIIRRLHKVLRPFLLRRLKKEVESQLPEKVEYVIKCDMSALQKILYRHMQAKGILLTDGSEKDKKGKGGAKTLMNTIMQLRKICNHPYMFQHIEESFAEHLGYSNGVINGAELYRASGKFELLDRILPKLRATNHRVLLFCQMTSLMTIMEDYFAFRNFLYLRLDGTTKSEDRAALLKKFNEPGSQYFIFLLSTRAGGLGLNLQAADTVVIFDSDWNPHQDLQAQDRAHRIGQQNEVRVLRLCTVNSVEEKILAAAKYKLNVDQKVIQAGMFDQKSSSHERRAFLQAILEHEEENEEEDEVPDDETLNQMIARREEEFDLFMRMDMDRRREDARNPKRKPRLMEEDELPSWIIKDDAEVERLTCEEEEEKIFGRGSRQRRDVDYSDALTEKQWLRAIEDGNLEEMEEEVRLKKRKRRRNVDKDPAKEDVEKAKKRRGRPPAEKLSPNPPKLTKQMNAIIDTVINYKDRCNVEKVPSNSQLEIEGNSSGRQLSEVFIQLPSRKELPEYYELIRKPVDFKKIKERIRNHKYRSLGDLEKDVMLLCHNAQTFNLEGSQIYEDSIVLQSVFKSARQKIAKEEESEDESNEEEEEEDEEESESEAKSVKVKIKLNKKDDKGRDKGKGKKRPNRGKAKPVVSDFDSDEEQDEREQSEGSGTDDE
Method in brief: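 Stable HiBiT-BRM HeLa cells were treated with 10-point 3-fold serial dilutions (30 μM final top dose, duplicate) for 24 h, then lysed with LgBiT-containing detection reagent and luminescence read. Degradation % was normalised to DMSO (high control) and 2 μM reference BRM/BRG1 degrader (low control).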

[2] = molecular target: T2, HiBit-BRG1 fusion protein in stable HeLa cell line expressing HiBit-BRG1 and LgBit (Homo sapiens, UniProt P51532); assay: HiBiT-BRG1 cell-based degradation assay (Nano-Glo HiBiT, 24 h); conditions: HeLa HiBit-BRG1/LgBit cells; for Dmax: top dose 30 μM, read-out: BRG1 HiBit Degradation Maximum (%); for DC50: read-out: BRMG1 HiBit Degradation IC50
T2 construct: expressed in transfected cells
T2 sequence (P51532 whole entry, the tested form may be a part): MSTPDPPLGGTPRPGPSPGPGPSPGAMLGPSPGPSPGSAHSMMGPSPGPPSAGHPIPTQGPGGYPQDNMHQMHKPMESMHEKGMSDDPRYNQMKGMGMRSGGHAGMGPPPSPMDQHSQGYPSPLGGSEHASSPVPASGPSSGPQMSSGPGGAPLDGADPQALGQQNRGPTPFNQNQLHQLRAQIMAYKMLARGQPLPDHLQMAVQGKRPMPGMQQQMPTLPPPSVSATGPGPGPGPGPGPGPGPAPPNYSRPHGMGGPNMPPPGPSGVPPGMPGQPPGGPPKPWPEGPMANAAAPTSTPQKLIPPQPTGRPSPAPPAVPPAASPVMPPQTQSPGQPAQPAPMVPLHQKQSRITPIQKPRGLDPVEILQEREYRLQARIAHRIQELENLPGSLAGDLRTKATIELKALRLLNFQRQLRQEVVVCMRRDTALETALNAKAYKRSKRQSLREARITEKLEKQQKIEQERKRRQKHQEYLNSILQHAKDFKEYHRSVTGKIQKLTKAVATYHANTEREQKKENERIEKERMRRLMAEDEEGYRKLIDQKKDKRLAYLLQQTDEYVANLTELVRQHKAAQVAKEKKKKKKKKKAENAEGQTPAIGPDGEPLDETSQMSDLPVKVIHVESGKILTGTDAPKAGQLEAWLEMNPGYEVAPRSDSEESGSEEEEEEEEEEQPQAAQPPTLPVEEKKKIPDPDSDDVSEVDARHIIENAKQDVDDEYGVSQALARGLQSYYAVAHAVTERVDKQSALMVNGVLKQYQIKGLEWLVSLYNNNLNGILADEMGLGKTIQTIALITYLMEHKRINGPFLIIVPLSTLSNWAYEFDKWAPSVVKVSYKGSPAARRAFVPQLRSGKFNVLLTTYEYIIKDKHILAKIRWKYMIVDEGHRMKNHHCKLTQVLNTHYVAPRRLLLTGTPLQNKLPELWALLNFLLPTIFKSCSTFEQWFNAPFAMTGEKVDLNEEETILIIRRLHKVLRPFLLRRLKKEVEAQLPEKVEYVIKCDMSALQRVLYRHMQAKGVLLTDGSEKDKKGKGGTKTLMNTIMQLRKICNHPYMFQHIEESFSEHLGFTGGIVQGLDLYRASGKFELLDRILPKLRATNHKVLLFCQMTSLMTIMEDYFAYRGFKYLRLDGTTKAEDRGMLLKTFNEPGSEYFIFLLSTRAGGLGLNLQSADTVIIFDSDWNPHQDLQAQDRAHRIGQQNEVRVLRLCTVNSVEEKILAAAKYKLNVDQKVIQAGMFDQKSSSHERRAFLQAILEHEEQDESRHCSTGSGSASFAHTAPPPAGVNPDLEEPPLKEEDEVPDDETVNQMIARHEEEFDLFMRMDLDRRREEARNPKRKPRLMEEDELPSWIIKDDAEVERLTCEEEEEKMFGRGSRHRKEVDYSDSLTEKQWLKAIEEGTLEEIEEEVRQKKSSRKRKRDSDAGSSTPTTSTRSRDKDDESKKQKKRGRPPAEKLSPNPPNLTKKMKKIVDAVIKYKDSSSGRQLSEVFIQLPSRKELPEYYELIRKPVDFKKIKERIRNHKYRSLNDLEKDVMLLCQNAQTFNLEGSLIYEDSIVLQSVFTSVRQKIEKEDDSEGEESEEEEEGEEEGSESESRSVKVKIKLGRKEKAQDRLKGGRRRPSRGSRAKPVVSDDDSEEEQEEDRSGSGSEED
Method in brief: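 Stable HeLa line co-expressing HiBiT-BRG1 and LgBiT, compound-treated 24 h; luminescence read after Nano-Glo HiBiT lytic reagent. % degradation normalised between DMSO (high control) and 2 μM reference BRM/BRG1 degrader (low control).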

| SMILES | DC50 [1] | Dmax [2] | DC50 [2] | BRM HiBit Degradation Maximum (%) [1] |
| --- | --- | --- | --- | --- |
| Cc1ncsc1-c1ccc([C@H](C)NC(=O)[C@@H]2C[C@@H](O)CN2C(=O)[C@H](C(C)C)n2cc(-c3ccc4nnc(-c5ccccc5O)cc4c3)nn2)cc1 [Compound 128, (2S,4R)-4-hydroxy-1-((S)-2-(4-(3-(2-hydroxyphenyl)cinnolin-6-yl)-1H-1,2,3-triazol-1-yl)-3-methylbutanoyl)-N—((S)-1-(4-(4-methylthiazol-5-yl)phenyl)ethyl)pyrrolidine-2-carboxamide] | < 10 nM | > 75% | < 10 nM | A (“A” indicates maximum degradation ≥75%) |
| Cc1ncsc1-c1ccc([C@H](C)NC(=O)[C@@H]2C[C@@H](O)CN2C(=O)[C@@H](c2cc(N3C[C@H]4CN(c5ccc6cc(-c7ccccc7O)nnc6c5)C[C@H]4C3)no2)C(C)C)cc1 [Compound 131, (2S,4R)-4-hydroxy-1-((R)-2-(3-((3aR,6aS)-5-(3-(2-hydroxyphenyl)cinnolin-7-yl)hexahydropyrrolo[3,4-c]pyrrol-2(1H)-yl)isoxazol-5-yl)-3-methylbutanoyl)-N-((S)-1-(4-(4-methylthiazol-5-yl)phenyl)ethyl)pyrrolidine-2-carboxamide] | < 10 nM | > 50% |  | A (“A” indicates maximum degradation ≥75%) |
| CC(C)[C@@H](C(=O)N1C[C@H](O)C[C@H]1C(=O)N[C@@H](C)c1ccccc1)c1cc(-c2ccc3nnc(-c4ccccc4O)cc3c2)no1 [Compound 133, (2S,4R)-4-hydroxy-1-((R)-2-(3-(3-(2-hydroxyphenyl)cinnolin-6-yl)isoxazol-5-yl)-3-methylbutanoyl)-N-((S)-1-phenylethyl)pyrrolidine-2-carboxamide] | < 10 nM | > 75% | > 10 nM | A (“A” indicates maximum degradation ≥75%) |
| CC(C)[C@@H](C(=O)N1C[C@H](O)C[C@H]1C(=O)N[C@@H](C)c1ccc(F)cc1)c1cc(-c2ccc3nnc(-c4ccccc4O)cc3c2)no1 [Compound 134, (2S,4R)-N-((S)-1-(4-fluorophenyl)ethyl)-4-hydroxy-1-((R)-2-(3-(3-(2-hydroxyphenyl)cinnolin-6-yl)isoxazol-5-yl)-3-methylbutanoyl)pyrrolidine-2-carboxamide] | < 10 nM | > 75% | > 10 nM | A (“A” indicates maximum degradation ≥75%) |
| Cc1ncsc1-c1ccc([C@H](C)NC(=O)[C@@H]2C[C@@H](O)CN2C(=O)[C@@H](c2cc(N3CCN([C@@H]4CCN(Cc5ccc6nnc(-c7ccccc7O)cc6c5)CC4(F)F)CC3)no2)C(C)C)cc1 [Compound 136, (2S,4R)-1-((R)-2-(3-(4-((R)-3,3-difluoro-1-((3-(2-hydroxyphenyl)cinnolin-6-yl)methyl)piperidin-4-yl)piperazin-1-yl)isoxazol-5-yl)-3-methylbutanoyl)-4-hydroxy-N-((S)-1-(4-(4-methylthiazol-5-yl)phenyl)ethyl)pyrrolidine-2-carboxamide] | < 10 nM | > 75% | < 10 nM | A (“A” indicates maximum degradation ≥75%) |
| Cc1ncsc1-c1ccc([C@H](C)NC(=O)[C@@H]2C[C@@H](O)CN2C(=O)[C@@H](c2cc(N3CCN([C@H]4CCN(Cc5ccc6nnc(-c7ccccc7O)cc6c5)CC4(F)F)CC3)no2)C(C)C)cc1 [Compound 137, (2S,4R)-1-((R)-2-(3-(4-((S)-3,3-difluoro-1-((3-(2-hydroxyphenyl)cinnolin-6-yl)methyl)piperidin-4-yl)piperazin-1-yl)isoxazol-5-yl)-3-methylbutanoyl)-4-hydroxy-N-((S)-1-(4-(4-methylthiazol-5-yl)phenyl)ethyl)pyrrolidine-2-carboxamide] | < 10 nM | > 75% | < 10 nM | A (“A” indicates maximum degradation ≥75%) |
| COC[C@H]1CN(c2cc([C@H](C(=O)N3C[C@H](O)C[C@H]3C(=O)N[C@@H](C)c3ccc(-c4scnc4C)cc3)C(C)C)on2)CCN1c1ccc2nnc(-c3ccccc3O)cc2c1 [Compound 138, (2S,4R)-4-hydroxy-1-((R)-2-(3-((R)-4-(3-(2-hydroxyphenyl)cinnolin-6-yl)-3-(methoxymethyl)piperazin-1-yl)isoxazol-5-yl)-3-methylbutanoyl)-N-((S)-1-(4-(4-methylthiazol-5-yl)phenyl)ethyl)pyrrolidine-2-carboxamide] | < 10 nM | > 75% | > 10 nM | A (“A” indicates maximum degradation ≥75%) |
| COC[C@H]1CN(c2cc([C@H](C(=O)N3C[C@H](O)C[C@H]3C(=O)N[C@@H](C)c3ccc(-c4scnc4C)cc3)C(C)C)on2)CCN1c1ccc2cc(-c3ccccc3O)nnc2c1 [Compound 142, (2S,4R)-4-hydroxy-1-((R)-2-(3-((R)-4-(3-(2-hydroxyphenyl)cinnolin-7-yl)-3-(methoxymethyl)piperazin-1-yl)isoxazol-5-yl)-3-methylbutanoyl)-N-((S)-1-(4-(4-methylthiazol-5-yl)phenyl)ethyl)pyrrolidine-2-carboxamide] | > 10 nM | < 50% |  | A (“A” indicates maximum degradation ≥75%) |

The next lines start with results.

| DC50 [1] | Dmax [2] | DC50 [2] | SMILES | BRM HiBit Degradation Maximum (%) [1] |
| --- | --- | --- | --- | --- |
| < 10 nM | < 50% |  | Cc1ncsc1-c1ccc([C@H](C)NC(=O)[C@@H]2C[C@@H](O)CN2C(=O)[C@@H](c2cc(N3CC4(CN(c5cc(C6CC6)c6cc(-c7ccccc7O)nnc6c5)C4)C3)no2)C(C)C)cc1 [Compound 125, (2S,4R)-1-((R)-2-(3-(6-(5-cyclopropyl-3-(2-hydroxyphenyl)cinnolin-7-yl)-2,6-diazaspiro[3.3]heptan-2-yl)isoxazol-5-yl)-3-methylbutanoyl)-4-hydroxy-N-((S)-1-(4-(4-methylthiazol-5-yl)phenyl)ethyl)pyrrolidine-2-carboxamide] | A (“A” indicates maximum degradation ≥75%) |
| < 10 nM | > 75% | < 10 nM | Cc1ncsc1-c1ccc([C@H](C)NC(=O)[C@@H]2C[C@@H](O)CN2C(=O)[C@@H](c2cc(N3CC4(C3)CN(c3cc5nnc(-c6ccccc6O)cc5cc3C3CC3)C4)no2)C(C)C)cc1 [Compound 126, (2S,4R)-1-((R)-2-(3-(6-(6-cyclopropyl-3-(2-hydroxyphenyl)cinnolin-7-yl)-2,6-diazaspiro[3.3]heptan-2-yl)isoxazol-5-yl)-3-methylbutanoyl)-4-hydroxy-N-((S)-1-(4-(4-methylthiazol-5-yl)phenyl)ethyl)pyrrolidine-2-carboxamide] | A (“A” indicates maximum degradation ≥75%) |
| < 10 nM | > 75% | < 10 nM | Cc1ncsc1-c1ccc([C@H](C)NC(=O)[C@@H]2C[C@@H](O)CN2C(=O)[C@@H](c2cc(N3CC4(CN(c5ccc6cc(-c7ccccc7O)nnc6c5)CCO4)C3)no2)C(C)C)cc1 [Compound 127, (2S,4R)-4-hydroxy-1-((R)-2-(3-(8-(3-(2-hydroxyphenyl)cinnolin-7-yl)-5-oxa-2,8-diazaspiro[3.5]nonan-2-yl)isoxazol-5-yl)-3-methylbutanoyl)-N-((S)-1-(4-(4-methylthiazol-5-yl)phenyl)ethyl)pyrrolidine-2-carboxamide] | A (“A” indicates maximum degradation ≥75%) |
| < 10 nM | < 50% |  | Cc1ncsc1-c1ccc([C@H](C)NC(=O)[C@@H]2C[C@@H](O)CN2C(=O)[C@@H](c2cc(N3CC4(CN(c5ccc6nnc(-c7ccccc7O)cc6c5)CCO4)C3)no2)C(C)C)cc1 [Compound 129, (2S,4R)-4-hydroxy-1-((R)-2-(3-(8-(3-(2-hydroxyphenyl)cinnolin-6-yl)-5-oxa-2,8-diazaspiro[3.5]nonan-2-yl)isoxazol-5-yl)-3-methylbutanoyl)-N-((S)-1-(4-(4-methylthiazol-5-yl)phenyl)ethyl)pyrrolidine-2-carboxamide] | A (“A” indicates maximum degradation ≥75%) |
| < 10 nM | > 75% | < 10 nM | Cc1ncsc1-c1ccc([C@H](C)NC(=O)[C@@H]2C[C@@H](O)CN2C(=O)[C@@H](c2cc(N3CCC4(CN(c5ccc6cc(-c7ccccc7O)nnc6c5)C4)C3)no2)C(C)C)cc1 [Compound 130, (2S,4R)-4-hydroxy-1-((R)-2-(3-(2-(3-(2-hydroxyphenyl)cinnolin-7-yl)-2,6-diazaspiro[3.4]octan-6-yl)isoxazol-5-yl)-3-methylbutanoyl)-N-((S)-1-(4-(4-methylthiazol-5-yl)phenyl)ethyl)pyrrolidine-2-carboxamide] | A (“A” indicates maximum degradation ≥75%) |
| < 10 nM | > 75% | < 10 nM | Cc1ncsc1-c1ccc([C@H](C)NC(=O)[C@@H]2C[C@@H](O)CN2C(=O)[C@@H](c2cc(N3CC4(CCN(c5ccc6cc(-c7ccccc7O)nnc6c5)C4)C3)no2)C(C)C)cc1 [Compound 132, (2S,4R)-4-hydroxy-1-((R)-2-(3-(6-(3-(2-hydroxyphenyl)cinnolin-7-yl)-2,6-diazaspiro[3.4]octan-2-yl)isoxazol-5-yl)-3-methylbutanoyl)-N-((S)-1-(4-(4-methylthiazol-5-yl)phenyl)ethyl)pyrrolidine-2-carboxamide] | A (“A” indicates maximum degradation ≥75%) |
